# Assay results taken from PubChem BioAssay AID328 (DTP/NCI, 2004).
# “And” between values parts separate entries of the source, which are not always exact repeats. Identical values can stand only once. Inconclusive results and toxic doses are left out.
# System: BDF1 mice, P388 leukemia ip, median survival T/C
# Assay: NCI In Vivo Anticancer Drug Screen. Data for tumor model P388 Leukemia (intraperitoneal) in B6D2F1 (BDF1) mice
# Settings: endpoint: median survival time, higher = longer survival
# Procedure, shortened: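 Steps: implant the tumour, treat one group with compound and another with vehicle, record survival, then divide treated by control.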
# [1] = dose: 50.0 mg/kg/injection, schedule: Q04DX003 (ip), vehicle: saline with Tween-80
# [2] = dose: 100.0 mg/kg/injection, schedule: Q04DX003 (ip), vehicle: saline with Tween-80
# [3] = dose: 100.0 mg/kg/injection, schedule: Q01DX009 (ip), vehicle: Klucel (hydroxypropylcellulose) (HPC)
# [4] = dose: 100.0 mg/kg/injection, schedule: Q04DX003 (ip), vehicle: Klucel (hydroxypropylcellulose) (HPC)
# [5] = dose: 200.0 mg/kg/injection, schedule: Q01DX009 (ip), vehicle: Klucel (hydroxypropylcellulose) (HPC)
# [6] = dose: 200.0 mg/kg/injection, schedule: Q04DX003 (ip), vehicle: Klucel (hydroxypropylcellulose) (HPC)
# [7] = dose: 400.0 mg/kg/injection, schedule: Q01DX009 (ip), vehicle: Klucel (hydroxypropylcellulose) (HPC)
# [8] = dose: 400.0 mg/kg/injection, schedule: Q04DX003 (ip), vehicle: Klucel (hydroxypropylcellulose) (HPC)
# [9] = dose: 200.0 mg/kg/injection, schedule: Q04DX003 (ip), vehicle: saline with Tween-80
# [10] = dose: 400.0 mg/kg/injection, schedule: Q04DX003 (ip), vehicle: saline with Tween-80
# [11] = dose: 12.5 mg/kg/injection, schedule: Q01DX009 (ip), vehicle: saline
# [12] = dose: 25.0 mg/kg/injection, schedule: Q01DX009 (ip), vehicle: saline
# [13] = dose: 50.0 mg/kg/injection, schedule: Q01DX009 (ip), vehicle: saline
# [14] = dose: 100.0 mg/kg/injection, schedule: Q01DX009 (ip), vehicle: saline
# [15] = dose: 200.0 mg/kg/injection, schedule: Q01DX009 (ip), vehicle: saline
# [16] = dose: 400.0 mg/kg/injection, schedule: Q01DX009 (ip), vehicle: saline
# [17] = dose: 50.0 mg/kg/injection, schedule: Q01DX009 (ip), vehicle: saline with Tween-80
# [18] = dose: 100.0 mg/kg/injection, schedule: Q01DX009 (ip), vehicle: saline with Tween-80
# [19] = dose: 200.0 mg/kg/injection, schedule: Q01DX009 (ip), vehicle: saline with Tween-80
# [20] = dose: 100.0 mg/kg/injection, schedule: Q04DX002 (ip), vehicle: saline with Tween-80
# [21] = dose: 200.0 mg/kg/injection, schedule: Q04DX002 (ip), vehicle: saline with Tween-80
compound,measurement,setting,value
C/C(Cc1ccccc1)=N/N(C)C,T/C,"dose: 25.0 mg/kg/injection, schedule: Q04DX003 (ip), vehicle: saline with Tween-80",108 % of control
same,T/C,[1],100 % of control
same,T/C,[2],104 % of control
CNC1=C(N2CC2)C(=O)C(NC)=C(N2CC2)C1=O,T/C,"dose: 0.05 mg/kg/injection, schedule: Q01DX009 (ip), vehicle: saline",159 % of control
same,T/C,"dose: 0.1 mg/kg/injection, schedule: Q01DX009 (ip), vehicle: saline",151 % of control and 169 % of control
same,T/C,"dose: 0.2 mg/kg/injection, schedule: Q01DX009 (ip), vehicle: saline",195 % of control
NC(N)=NC(N)=Nc1ccc([As](=O)(O)O)c(O)c1,T/C,"dose: 44.0 mg/kg/injection, schedule: Q01DX009 (ip), vehicle: Klucel (hydroxypropylcellulose) (HPC)",156 % of control
same,T/C,"dose: 66.0 mg/kg/injection, schedule: Q01DX009 (ip), vehicle: Klucel (hydroxypropylcellulose) (HPC)",156 % of control
same,T/C,[3],169 % of control
same,T/C,"dose: 150.0 mg/kg/injection, schedule: Q01DX009 (ip), vehicle: Klucel (hydroxypropylcellulose) (HPC)",169 % of control
same,T/C,"dose: 150.0 mg/kg/injection, schedule: Q01DX009 (ip), vehicle: saline",155 % of control
CC(CC(=O)O)(CC(=O)O)c1ccccc1,T/C,[3],100 % of control
same,T/C,[4],104 % of control
same,T/C,[5],95 % of control
same,T/C,[6],95 % of control
same,T/C,[7],100 % of control
same,T/C,[8],90 % of control
CCOn1nnc2cc(Cl)ccc21,T/C,[2],113 % of control
same,T/C,[9],113 % of control
same,T/C,[10],106 % of control
Nc1ccc(C(=O)O)c([N+](=O)[O-])c1,T/C,[11],92 % of control
same,T/C,[12],100 % of control
same,T/C,[13],105 % of control and 118 % of control
same,T/C,"dose: 50.0 mg/kg/injection, schedule: Q04DX003 (ip), vehicle: saline",99 % of control
same,T/C,[14],94 % of control and 98 % of control
same,T/C,"dose: 100.0 mg/kg/injection, schedule: Q04DX003 (ip), vehicle: saline",100 % of control
same,T/C,[15],107 % of control
same,T/C,"dose: 200.0 mg/kg/injection, schedule: Q04DX003 (ip), vehicle: saline",112 % of control
same,T/C,[16],100 % of control
same,T/C,"dose: 400.0 mg/kg/injection, schedule: Q04DX003 (ip), vehicle: saline",103 % of control
Nc1ccc(NS(=O)(=O)c2ccccc2)nc1,T/C,[3],100 % of control
same,T/C,[4],100 % of control
same,T/C,[5],100 % of control
same,T/C,[6],100 % of control
same,T/C,[7],95 % of control
same,T/C,[8],100 % of control
COc1ccc(C(O)(CS(C)(=O)=O)c2cccs2)cc1 (stereo not given),T/C,[17],110 % of control
same,T/C,[18],110 % of control
same,T/C,[19],103 % of control
CC(=O)Oc1ccc(C2(c3ccc(OC(C)=O)cc3)C(=O)Nc3ccccc32)cc1,T/C,[4],95 % of control
same,T/C,[6],104 % of control
same,T/C,[8],100 % of control
CC[N+](CC)(CC)CCCCCCCC[N+](CC)(CC)CC,T/C,"dose: 0.25 mg/kg/injection, schedule: Q01DX009 (ip), vehicle: water",115 % of control
same,T/C,"dose: 0.5 mg/kg/injection, schedule: Q01DX009 (ip), vehicle: water",92 % of control
same,T/C,"dose: 0.5 mg/kg/injection, schedule: Q04DX003 (ip), vehicle: water",100 % of control
same,T/C,"dose: 0.78 mg/kg/injection, schedule: Q04DX003 (ip), vehicle: water",112 % of control
same,T/C,"dose: 1.0 mg/kg/injection, schedule: Q01DX009 (ip), vehicle: water",105 % of control and 106 % of control
same,T/C,"dose: 1.0 mg/kg/injection, schedule: Q04DX003 (ip), vehicle: water",88 % of control
same,T/C,"dose: 1.56 mg/kg/injection, schedule: Q04DX003 (ip), vehicle: water",112 % of control
same,T/C,"dose: 2.0 mg/kg/injection, schedule: Q01DX009 (ip), vehicle: water",106 % of control
same,T/C,"dose: 3.12 mg/kg/injection, schedule: Q04DX003 (ip), vehicle: water",112 % of control
CCOC(=O)C(NC(C)=O)(C(=O)OCC)C(C)C(O)c1ccc(OC)c(OC)c1O (stereo not given),T/C,[12],100 % of control
same,T/C,[13],100 % of control
same,T/C,[14],109 % of control
same,T/C,[15],122 % of control
same,T/C,[16],100 % of control
COc1cccc(CNc2cccc(Cl)c2Cl)c1OC,T/C,[2],100 % of control
same,T/C,[9],104 % of control
same,T/C,[10],100 % of control
CCOC(=S)SCc1cc(C(C)(C)C)c(O)c(C(C)(C)C)c1,T/C,[20],100 % of control
same,T/C,[21],99 % of control
O=[N+]([O-])c1ccc2c(c1)C(Br)c1ccccc1-2 (stereo not given),T/C,"dose: 50.0 mg/kg/injection, schedule: Q01DX009 (ip), vehicle: Klucel (hydroxypropylcellulose) (HPC)",90 % of control
same,T/C,[3],118 % of control
same,T/C,[5],118 % of control
CN1Cc2cc3cc(c2O)C[N+](C)(C)Cc2c(Cl)c(c(Cl)c(c2Cl)C[N+](C)(C)C3)C1,T/C,"dose: 6.25 mg/kg/injection, schedule: Q01DX009 (ip), vehicle: saline",118 % of control
same,T/C,"dose: 8.2 mg/kg/injection, schedule: Q01DX009 (ip), vehicle: saline",108 % of control
same,T/C,[11],108 % of control
same,T/C,"dose: 25.0 mg/kg/injection, schedule: Q01DX001 (ip), vehicle: saline",104 % of control
same,T/C,[12],109 % of control
same,T/C,"dose: 50.0 mg/kg/injection, schedule: Q01DX001 (ip), vehicle: saline",100 % of control
same,T/C,"dose: 118.0 mg/kg/injection, schedule: Q01DX009 (ip), vehicle: saline",112 % of control
Cc1onc(-c2ccccc2)c1C(=O)N1CCCN2C(=O)c3ccccc3C21 (stereo not given),T/C,[19],98 % of control
CC(=O)O[C@@H]1c2c(c3c(=O)c4cccc(O)c4c(=O)c=3c2=[N+]=[N-])[C@H](OC(C)=O)[C@@H](OC(C)=O)[C@]1(C)O,T/C,"dose: 3.0 mg/kg/injection, schedule: Q01DX009 (ip), vehicle: Klucel (hydroxypropylcellulose) (HPC)",118 % of control
same,T/C,"dose: 6.0 mg/kg/injection, schedule: Q01DX009 (ip), vehicle: Klucel (hydroxypropylcellulose) (HPC)",105 % of control
COC(OC)C1=C(Cl)C(Cl)=C(Cl)/C1=N\Nc1ccccc1,T/C,"dose: 100.0 mg/kg/injection, schedule: Q01DX001 (ip), vehicle: saline with Tween-80",109 % of control
same,T/C,"dose: 200.0 mg/kg/injection, schedule: Q01DX001 (ip), vehicle: saline with Tween-80",86 % of control
O=C(c1ccccc1)C1CN(C2CCCC2)C1c1ccccc1 (stereo not given),T/C,[17],91 % of control
same,T/C,[18],92 % of control
same,T/C,[19],91 % of control
CC(=O)/C=C/c1ccccc1,T/C,[18],91 % of control and 109 % of control
same,T/C,[19],108 % of control and 118 % of control
same,T/C,"dose: 400.0 mg/kg/injection, schedule: Q01DX009 (ip), vehicle: saline with Tween-80",117 % of control
COc1ccc(-c2nc3c(=O)n(C)c(=O)n(C)c3nc2-c2ccc(OC)cc2)cc1,T/C,[20],104 % of control
same,T/C,[21],97 % of control
same,T/C,"dose: 400.0 mg/kg/injection, schedule: Q04DX002 (ip), vehicle: saline with Tween-80",97 % of control
CCOC(=O)C1C(C)OC(=O)C(Br)C1C (stereo not given),T/C,[17],97 % of control
same,T/C,[18],98 % of control
same,T/C,[19],104 % of control
CCCC(C(=O)OCCN1CCCC12CCCCC2)C1CCCC1 (stereo not given),T/C,"dose: 12.5 mg/kg/injection, schedule: Q01DX009 (ip), vehicle: saline with Tween-80",107 % of control
same,T/C,"dose: 25.0 mg/kg/injection, schedule: Q01DX009 (ip), vehicle: saline with Tween-80",108 % of control
same,T/C,[17],119 % of control
NC(=O)CC[n+]1ccccc1,T/C,[11],94 % of control
same,T/C,[12],100 % of control
same,T/C,[13],99 % of control
CNC1C(OC2C(OC3C(O)C(O)C(N=C(N)N)C(O)C3N=C(N)N)OC(C)C2(O)C=O)OC(CO)C(O)C1O (stereo not given),T/C,"dose: 100.0 mg/kg/injection, schedule: Q01DX009 (ip), vehicle: water",103 % of control
same,T/C,"dose: 200.0 mg/kg/injection, schedule: Q01DX009 (ip), vehicle: water",112 % of control
same,T/C,"dose: 400.0 mg/kg/injection, schedule: Q01DX009 (ip), vehicle: water",103 % of control
Cc1ccc(CO)cc1C,T/C,[1],100 % of control
same,T/C,[2],100 % of control
same,T/C,[9],104 % of control
